# According to PMC9937012 (Journal of Enzyme Inhibition and Medicinal Chemistry, 2023):
# Assays:
# human H1R = human H1R (Homo sapiens, UniProt P35367); test: Human H1R radioligand displacement assay; type: binding; settings: for inhibition at 10 µM: read-out: hH1R Inhibition at 10 µM [%] ±SD (n); for inhibition at 1 µM: read-out: hH1R Inhibition at 1 µM [%] (n)
# human H4R = human H4R (Homo sapiens, UniProt Q9H3N8); test: Human H4R radioligand displacement assay; settings: read-out: hH4R Inhibition at 10 µM [%] (n)
# Chain of human H4R (Q9H3N8 whole entry): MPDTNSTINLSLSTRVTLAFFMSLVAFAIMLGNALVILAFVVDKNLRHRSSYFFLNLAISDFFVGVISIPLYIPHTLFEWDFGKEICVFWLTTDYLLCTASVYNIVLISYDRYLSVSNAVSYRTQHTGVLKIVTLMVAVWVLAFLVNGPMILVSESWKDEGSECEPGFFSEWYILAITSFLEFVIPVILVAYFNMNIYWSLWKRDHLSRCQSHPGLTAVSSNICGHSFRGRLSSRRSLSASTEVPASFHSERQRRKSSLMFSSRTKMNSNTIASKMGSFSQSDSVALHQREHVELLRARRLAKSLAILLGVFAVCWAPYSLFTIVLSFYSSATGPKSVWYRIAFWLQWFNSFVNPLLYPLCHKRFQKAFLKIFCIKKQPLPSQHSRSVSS
# human AChE = human AChE (Homo sapiens, UniProt P22303); test: Inhibition of AChE; type: biochemical; settings: for inhibition at 10 µM: read-out: AChE Inhibition at 10 µM [%]
# Chain of human AChE (P22303 32-614): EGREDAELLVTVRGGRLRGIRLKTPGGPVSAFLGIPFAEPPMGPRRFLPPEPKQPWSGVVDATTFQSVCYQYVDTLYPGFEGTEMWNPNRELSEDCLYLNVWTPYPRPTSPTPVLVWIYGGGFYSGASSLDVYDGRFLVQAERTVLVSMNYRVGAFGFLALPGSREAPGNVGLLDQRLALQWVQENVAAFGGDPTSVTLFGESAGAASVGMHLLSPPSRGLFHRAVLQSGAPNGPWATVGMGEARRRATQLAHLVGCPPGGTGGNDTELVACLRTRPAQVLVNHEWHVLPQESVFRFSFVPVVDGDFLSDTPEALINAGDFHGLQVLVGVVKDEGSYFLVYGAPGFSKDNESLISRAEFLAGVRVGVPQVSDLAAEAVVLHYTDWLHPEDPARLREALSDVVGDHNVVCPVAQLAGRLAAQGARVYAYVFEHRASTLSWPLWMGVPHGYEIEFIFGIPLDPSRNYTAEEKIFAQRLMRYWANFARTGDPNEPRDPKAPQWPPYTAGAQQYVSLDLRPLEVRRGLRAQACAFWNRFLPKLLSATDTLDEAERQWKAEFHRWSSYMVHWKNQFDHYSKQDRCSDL
# human recombinant MAO-B = target: T1, human recombinant MAO-B (Homo sapiens, UniProt P27338); test: Inhibition of monoamine oxidase B; type: biochemical; settings: for inhibition at 10 µM: read-out: MAO-B % Inhibition at 10 µM, 10 µM; for inhibition at 10 µM / MAO-B % Inhibition at 10 µM: mean of three experiments
# T1 sequence (P27338 1-520): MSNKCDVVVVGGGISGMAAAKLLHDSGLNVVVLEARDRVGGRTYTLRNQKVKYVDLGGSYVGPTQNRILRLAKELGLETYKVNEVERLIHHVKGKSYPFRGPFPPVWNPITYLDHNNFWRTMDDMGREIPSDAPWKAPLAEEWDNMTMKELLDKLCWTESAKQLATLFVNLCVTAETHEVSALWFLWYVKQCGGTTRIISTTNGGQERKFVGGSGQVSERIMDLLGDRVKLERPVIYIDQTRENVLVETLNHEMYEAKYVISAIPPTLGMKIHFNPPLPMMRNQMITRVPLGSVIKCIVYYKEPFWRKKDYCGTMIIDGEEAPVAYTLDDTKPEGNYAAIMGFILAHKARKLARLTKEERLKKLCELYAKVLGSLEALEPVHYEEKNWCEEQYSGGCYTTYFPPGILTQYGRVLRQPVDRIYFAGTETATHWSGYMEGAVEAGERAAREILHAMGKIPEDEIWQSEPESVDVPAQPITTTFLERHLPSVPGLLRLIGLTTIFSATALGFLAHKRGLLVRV
# human recombinant MAO-A = target: T2, human recombinant MAO-A (Homo sapiens, UniProt P21397); test: Inhibition of monoamine oxidase A; type: biochemical; settings: read-out: MAO-A % Inhibition at 10 µM
# T2 sequence (P21397 1-527): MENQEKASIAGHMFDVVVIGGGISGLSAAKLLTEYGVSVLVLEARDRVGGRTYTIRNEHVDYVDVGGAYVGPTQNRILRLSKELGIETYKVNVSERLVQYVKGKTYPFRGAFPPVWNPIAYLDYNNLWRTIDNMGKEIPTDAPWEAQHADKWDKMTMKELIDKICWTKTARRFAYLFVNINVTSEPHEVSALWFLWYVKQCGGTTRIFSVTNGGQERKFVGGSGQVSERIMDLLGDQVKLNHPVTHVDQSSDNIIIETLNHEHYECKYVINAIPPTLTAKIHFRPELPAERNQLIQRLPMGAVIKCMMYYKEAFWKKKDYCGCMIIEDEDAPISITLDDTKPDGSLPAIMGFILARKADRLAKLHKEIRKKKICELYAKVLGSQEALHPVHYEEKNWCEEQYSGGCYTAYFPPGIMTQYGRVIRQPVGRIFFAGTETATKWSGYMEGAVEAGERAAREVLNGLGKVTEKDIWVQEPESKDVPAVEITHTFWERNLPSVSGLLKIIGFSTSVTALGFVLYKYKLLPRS
# BuChE from human serum = BuChE from human serum (Homo sapiens, UniProt P06276); test: Inhibition of BuChE; type: biochemical; settings: for inhibition at 10 µM: read-out: hBuChE % Inhibition at 10 µM
# Chain of BuChE from human serum (P06276 29-602): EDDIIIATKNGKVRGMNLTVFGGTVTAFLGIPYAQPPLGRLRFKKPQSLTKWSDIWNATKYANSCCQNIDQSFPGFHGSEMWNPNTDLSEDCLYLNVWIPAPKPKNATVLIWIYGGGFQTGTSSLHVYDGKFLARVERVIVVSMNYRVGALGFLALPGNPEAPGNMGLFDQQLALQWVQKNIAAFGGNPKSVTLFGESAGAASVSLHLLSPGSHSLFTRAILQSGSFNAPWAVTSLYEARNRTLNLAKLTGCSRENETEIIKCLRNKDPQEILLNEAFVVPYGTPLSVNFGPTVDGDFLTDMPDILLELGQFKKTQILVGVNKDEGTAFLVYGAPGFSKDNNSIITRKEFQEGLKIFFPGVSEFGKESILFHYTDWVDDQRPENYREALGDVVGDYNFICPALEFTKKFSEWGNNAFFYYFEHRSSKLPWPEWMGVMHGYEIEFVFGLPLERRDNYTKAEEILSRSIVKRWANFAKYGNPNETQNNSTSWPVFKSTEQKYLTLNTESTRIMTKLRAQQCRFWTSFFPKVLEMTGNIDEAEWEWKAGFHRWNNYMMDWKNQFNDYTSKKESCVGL
# human H3R = human H3R (Homo sapiens, UniProt Q9Y5N1); test: Human H3R radioligand displacement assay
# Chain of human H3R (Q9Y5N1 whole entry): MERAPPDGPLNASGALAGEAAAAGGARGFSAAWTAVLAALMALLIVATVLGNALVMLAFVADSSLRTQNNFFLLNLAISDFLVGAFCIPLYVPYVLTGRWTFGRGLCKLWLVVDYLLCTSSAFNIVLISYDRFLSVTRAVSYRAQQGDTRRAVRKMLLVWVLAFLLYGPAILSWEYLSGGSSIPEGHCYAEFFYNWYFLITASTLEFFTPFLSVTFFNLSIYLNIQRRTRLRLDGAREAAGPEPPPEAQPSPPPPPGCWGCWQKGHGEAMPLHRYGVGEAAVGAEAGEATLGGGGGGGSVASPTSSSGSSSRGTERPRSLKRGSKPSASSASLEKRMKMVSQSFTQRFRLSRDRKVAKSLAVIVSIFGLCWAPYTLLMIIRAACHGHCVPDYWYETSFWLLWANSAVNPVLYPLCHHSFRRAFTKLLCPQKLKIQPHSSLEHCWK
# Chain of human H1R (P35367 whole entry): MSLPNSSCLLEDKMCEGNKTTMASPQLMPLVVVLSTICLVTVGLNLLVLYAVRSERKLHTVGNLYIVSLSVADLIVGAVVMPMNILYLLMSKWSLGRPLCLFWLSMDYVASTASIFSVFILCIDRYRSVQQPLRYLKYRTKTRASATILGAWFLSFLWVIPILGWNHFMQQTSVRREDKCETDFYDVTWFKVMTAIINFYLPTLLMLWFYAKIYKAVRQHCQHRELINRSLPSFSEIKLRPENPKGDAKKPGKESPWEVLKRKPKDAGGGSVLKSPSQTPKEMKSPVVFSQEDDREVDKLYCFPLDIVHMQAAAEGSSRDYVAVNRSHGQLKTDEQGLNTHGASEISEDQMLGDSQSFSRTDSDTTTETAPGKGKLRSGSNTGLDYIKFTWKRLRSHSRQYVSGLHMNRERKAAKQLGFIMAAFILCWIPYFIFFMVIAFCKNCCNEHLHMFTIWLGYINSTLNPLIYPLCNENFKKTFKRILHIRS
Compound,inhibition at 10 µM (human H1R) [%],inhibition at 10 µM (human H4R) [%],IC50 (human AChE) [nM],inhibition at 10 µM (human AChE) [%],inhibition at 10 µM (human recombinant MAO-B) [%],inhibition at 10 µM (human recombinant MAO-A) [%],IC50 (BuChE from human serum) [nM],inhibition at 10 µM (BuChE from human serum) [%],Ki (human H3R) [nM],IC50 (human recombinant MAO-B) [nM],MAO-B % Inhibition at 10 µM (human recombinant MAO-B) [%],inhibition at 1 µM (human H1R) [%]
"O=C(c1nc2ccc(OCCN3CCCC3)cc2s1)N1CCCC1 [Compound 3b, Pyrrolidin-1-yl-(6-(2-(pyrrolidin-1-yl)ethoxy)benzo[d]thiazol-2-yl)methanone]",< 0,44.9 ± 18.1,440 ± 100,95.3 ± 0.8,47 ± 3,58 ± 2,5310 ± 10,70 ± 1,640,–,–,–
"O=C(c1nc2ccc(OCCCN3CCCCC3)cc2s1)N1CCCCC1 [Compound 3d, Piperidin-1-yl-(6-(3-(piperidin-1-yl)propoxy)benzo[d]thiazol-2-yl)methanone]",65.3 ± 9.2,63.1 ± 11.2,> 10000,33.6 ± 10.8,28 ± 5,33 ± 3,–,31 ± 1,74,–,–,–
"O=C(c1nc2ccc(OCCCN3CCCC3)cc2s1)N1CCCC1 [Compound 3h, Pyrrolidin-1-yl-(6-(3-(pyrrolidin-1-yl)propoxy)benzo[d]thiazol-2-yl)methanone]",39.1 ± 13,54.3 ± 13,7210 ± 2300,56.8 ± 7.14,24 ± 4,22 ± 4,–,13 ± 2,38,–,–,–
"O=C(c1nc2ccc(OCCCCN3CCCCC3)cc2s1)N1CCCCC1 [Compound 3j, Piperidin-1-yl-(6-(4-(piperidin-1-yl)butoxy)benzo[d]thiazol-2-yl)methanone]",42.8 ± 7.7,53.1 ± 11.7,8560 ± 2830,54.8 ± 7.01,48 ± 5,29 ± 5,3070 ± 240,70 ± 2,170,–,–,–
"O=C(c1nc2ccc(OCCCCN3CCCC3)cc2s1)N1CCCC1 [Compound 3n, Pyrrolidin-1-yl(6-(4-(pyrrolidin-1-yl)butoxy)benzo[d]thiazol-2-yl)methanone]",37.5 ± 7.5,57.9 ± 13.3,1300 ± 100,83 ± 3.27,49 ± 4,31 ± 4,1320 ± 120,80 ± 1,59,–,–,–
"O=C(c1nc2ccc(OCCCCCN3CCCCC3)cc2s1)N1CCCCC1 [Compound 3o, Piperidin-1-yl(6-((5-(piperidin-1-yl)pentyl)oxy)benzo[d]thiazol-2-yl)methanone]",91.2 ± 8.2,38.8 ± 28,> 10000,27.8 ± 5.91,> 60,37 ± 4,2380 ± 320,81 ± 1,68,3040 ± 460,70 ± 4,–
"O=C(c1nc2ccc(OCCCCCN3CCCC3)cc2s1)N1CCCC1 [Compound 3s, Pyrrolidin-1-yl-(6-((5-(pyrrolidin-1-yl)pentyl)oxy)benzo[d]thiazol-2-yl)methanone]",66.2 ± 7.3,63.7 ± 13,–,58.6 ± 3.73,> 60,45 ± 3,2350 ± 230,69 ± 1,36,1600 ± 160,75 ± 3,–
"O=C(NC1CCCC1)c1nc2ccc(OCCCCCNC3CCCC3)cc2s1 [Compound 3t, N-Cyclopentyl-6-((5-(cyclopentylamino)pentyl)oxy)benzo[d]thiazole-2-carboxamide]",47.3 ± 8.91,41.8 ± 31.7,3550 ± 540,75.5 ± 4.73,47 ± 5,39 ± 4,1750 ± 60,84 ± 1,> 1000,–,–,–
"O=C(NCCN1CCCC1)c1nc2ccc(OCCCNCCN3CCCC3)cc2s1 [Compound 4a, N-(2-(Pyrrolidin-1-yl)ethyl)-6-(3-((2-(pyrrolidin-1-yl)ethyl)amino)propoxy)benzo[d]thiazole-2-carboxamide]",–,–,1240 ± 70,86.9 ± 1.51,51 ± 1,29 ± 4,169 ± 19,97 ± 1,53,–,–,28.1 ± 39.1
"O=C(c1nc2ccc(OCCCN3CCCCCC3)cc2s1)N1CCCCCC1 [Compound 4b, Azepan-1-yl-(6-(3-(azepan-1-yl)propoxy)benzo[d]thiazol-2-yl)methanone]",–,–,5910 ± 670,62.8 ± 3.35,46 ± 5,29 ± 2,–,51 ± 2,12,–,–,41.9 ± 33.8
"CC1CCCN(CCCOc2ccc3nc(C(=O)N4CCCC(C)C4)sc3c2)C1 (centres unmarked) [Compound 4k, (3-Methylpiperidin-1-yl)(6-(3-(3-methylpiperidin-1-yl)propoxy)benzo[d]thiazol-2-yl)methanone]",–,–,> 10000,34.4 ± 2.15,48 ± 5,32 ± 2,–,30 ± 5,64,–,–,42.9 ± 28.3
